Activity calls are given as the source filed them. The rule behind the calls is not given here.
Experiments:
PC-12 [1] = assay: Cytoprotective activity against H2O2-induced oxidative damage in rat PC12 cells assessed as increase in colony formation at 0.5 to 1 uM preincubated for 24 hrs followed by H2O2 treatment by crystal violet staining based assay; assay type: functional, cell-based; conditions: dose 0.5-1 µM
PC-12 [2] = assay: Antioxidant activity against H2O2-induced oxidative damage in rat PC12 cells assessed as inhibition of MDA production at 2 uM preincubated for 24 hrs followed by H2O2 stimulation for 6 hrs; assay type: functional, cell-based; conditions: time 30.0 hrs
PC-12 [3] = assay: Cytoprotective activity against H2O2-induced oxidative damage in rat PC12 cells assessed as increase in cell viability pre-incubated for 24 hrs followed by H2O2 treatment for another 24 hrs by MTT assay; assay type: functional, cell-based; conditions: dose 0.25-2 µM, time 48.0 hrs
Rattus norvegicus [4] = assay: Neuroprotective activity in Sprague-Dawley rat model of middle cerebral artery occlusion-induced cerebral ischemia-reperfusion injury assessed as reduction in neurological deficit score at 80 ug/kg pretreated for 2 hrs followed by MCAO measured after 72 hrs by TTC staining based assay; assay type: functional, organism-based; conditions: dose 80.0 µg/kg, time 74.0 hrs
[5] = target: T1, Nuclear factor erythroid 2-related factor 2 (Rattus norvegicus) (UniProt O54968); assay: Activation of Nrf2 in rat PC12 cells assessed as nuclear translocation of Nrf2 at 2 uM after 6 hrs by DAPI staining based fluorescence microscopy analysis; assay type: cell-based; conditions: PC-12, filed as activator
T1 sequence (whole entry): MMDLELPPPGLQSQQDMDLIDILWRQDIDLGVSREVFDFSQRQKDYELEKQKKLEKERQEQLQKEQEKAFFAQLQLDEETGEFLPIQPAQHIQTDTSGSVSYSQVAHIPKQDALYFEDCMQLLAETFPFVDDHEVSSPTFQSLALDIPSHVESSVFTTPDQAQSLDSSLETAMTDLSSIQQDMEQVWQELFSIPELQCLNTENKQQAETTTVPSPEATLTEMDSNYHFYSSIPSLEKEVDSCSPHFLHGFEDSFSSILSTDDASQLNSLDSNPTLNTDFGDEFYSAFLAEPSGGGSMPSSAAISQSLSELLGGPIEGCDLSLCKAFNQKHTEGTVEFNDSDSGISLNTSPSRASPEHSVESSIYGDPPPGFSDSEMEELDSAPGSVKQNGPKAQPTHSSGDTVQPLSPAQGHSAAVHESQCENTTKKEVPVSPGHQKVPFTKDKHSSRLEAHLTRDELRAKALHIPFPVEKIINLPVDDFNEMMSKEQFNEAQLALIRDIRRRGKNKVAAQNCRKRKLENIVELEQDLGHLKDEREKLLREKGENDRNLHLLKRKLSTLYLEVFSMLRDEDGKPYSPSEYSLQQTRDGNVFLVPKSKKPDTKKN

PC-12 [6] = assay: Cytoprotective activity against H2O2-induced oxidative damage in Nrf2 knockdown rat PC12 cells assessed as increase in cell viability at 2 uM preincubated for 24 hrs followed by H2O2 treatment for another 24 hrs by MTT assay; assay type: functional, cell-based; conditions: time 48.0 hrs
[7] = target: T1, Nuclear factor erythroid 2-related factor 2 (Rattus norvegicus); assay: Activation of Nrf2 in rat PC12 cells assessed as upregulation of HO-1 protein expression at 2 uM after 24 hrs by Western blotting analysis; assay type: cell-based; conditions: PC-12, filed as activator
Rattus norvegicus [8] = assay: Neuroprotective activity in Sprague-Dawley rat model of middle cerebral artery occlusion-induced cerebral ischemia-reperfusion injury assessed as decrease in brain infarction size at 80 ug/kg pretreated for 2 hrs followed by MCAO measured after 72 hrs by TTC staining based assay; assay type: functional, organism-based; conditions: dose 80.0 µg/kg
[9] = target: T1, Nuclear factor erythroid 2-related factor 2 (Rattus norvegicus); assay: Activation of Nrf2 in rat PC12 cells assessed as upregulation of HO-1 protein expression after 24 hrs by Western blotting analysis; assay type: cell-based; conditions: PC-12, filed as activator, dose 0.5-2 µM
PC-12 [10] = assay: Antioxidant activity against H2O2-induced oxidative damage in rat PC12 cells assessed as inhibition of intracellular ROS production at 2 uM preincubated for 24 hrs followed by H2O2 stimulation for 2 hrs by DCFH-DA staining based fluorescence microscopy; assay type: functional, cell-based; conditions: time 26.0 hrs
PC-12 [11] = assay: Cytoprotective activity against H2O2-induced oxidative damage in rat PC12 cells assessed as increase in cell viability at 0.25 uM preincubated for 24 hrs followed by H2O2 treatment for another 24 hrs by MTT assay; assay type: functional, cell-based; conditions: time 48.0 hrs

SMILES: CC(C)=CCC[C@@H](C)[C@@H]1CC[C@](C)(O)[C@@H]2CC=C(C)[C@H]2[C@@H]1O
- Activity (PC-12 [1]): Active
- Activity (PC-12 [2]): Active
- Activity (PC-12 [3]): Dose-Dependent Effect
- Activity (Rattus norvegicus [4]): Active
- Activity [5]: Active
- Activity (PC-12 [6]): inactive
- Activity [7]: Active
- Activity (Rattus norvegicus [8]): Active
- Activity [9]: Dose-Dependent Effect
- Activity (PC-12 [10]): Active
- Activity (PC-12 [11]): Active
